In paper PMC4674063, “Uncovering the Molecular Mechanism of Actions between Pharmaceuticals and Proteins on the AD Network” (PLoS ONE, 2015):
Like-named read-outs stand apart in the source and are kept apart here.

Assays:
[1] = cited from earlier work
NEP = NEP (Homo sapiens, UniProt P08473); assay: Wet-lab test of inhibition of NEP; format: biochemical; parameters: inhibition rate / quenching efficiency: concentration or dose not given beside the values
IDE = target: T1, IDE (Homo sapiens, UniProt P14735); assay: Wet-lab test of inhibition of IDE; format: biochemical; settings: for inhibition rate / quenching efficiency / IC50: binding to IDE; for IC50: computed value
T1 sequence (P14735 1-1019): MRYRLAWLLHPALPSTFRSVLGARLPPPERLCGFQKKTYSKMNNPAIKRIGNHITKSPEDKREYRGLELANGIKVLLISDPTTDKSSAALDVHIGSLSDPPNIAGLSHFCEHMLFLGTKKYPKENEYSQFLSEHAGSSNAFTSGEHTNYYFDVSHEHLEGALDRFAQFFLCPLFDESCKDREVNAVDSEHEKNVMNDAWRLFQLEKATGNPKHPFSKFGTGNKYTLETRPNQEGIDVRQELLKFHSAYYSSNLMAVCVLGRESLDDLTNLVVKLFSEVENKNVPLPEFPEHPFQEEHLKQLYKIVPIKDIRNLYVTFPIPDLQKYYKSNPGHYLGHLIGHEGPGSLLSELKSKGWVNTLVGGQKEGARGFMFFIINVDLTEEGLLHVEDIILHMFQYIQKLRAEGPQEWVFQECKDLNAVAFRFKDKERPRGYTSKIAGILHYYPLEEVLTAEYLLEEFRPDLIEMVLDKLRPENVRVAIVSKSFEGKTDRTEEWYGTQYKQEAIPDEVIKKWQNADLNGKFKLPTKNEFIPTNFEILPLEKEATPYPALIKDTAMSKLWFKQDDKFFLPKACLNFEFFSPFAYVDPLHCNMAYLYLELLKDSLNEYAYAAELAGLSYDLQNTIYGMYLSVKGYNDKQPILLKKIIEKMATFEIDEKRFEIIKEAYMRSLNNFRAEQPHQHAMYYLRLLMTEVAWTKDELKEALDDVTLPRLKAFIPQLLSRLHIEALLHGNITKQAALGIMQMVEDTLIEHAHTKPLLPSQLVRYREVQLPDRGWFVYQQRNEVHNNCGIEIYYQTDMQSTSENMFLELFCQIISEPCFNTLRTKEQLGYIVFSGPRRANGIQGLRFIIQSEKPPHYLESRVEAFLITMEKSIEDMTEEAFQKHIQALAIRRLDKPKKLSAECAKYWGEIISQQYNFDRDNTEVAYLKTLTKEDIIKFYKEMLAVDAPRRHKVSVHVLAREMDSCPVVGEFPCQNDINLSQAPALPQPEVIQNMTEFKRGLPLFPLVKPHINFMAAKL

[2] = conclusion from both amiloride analogs

Sequence of NEP (P08473 whole entry): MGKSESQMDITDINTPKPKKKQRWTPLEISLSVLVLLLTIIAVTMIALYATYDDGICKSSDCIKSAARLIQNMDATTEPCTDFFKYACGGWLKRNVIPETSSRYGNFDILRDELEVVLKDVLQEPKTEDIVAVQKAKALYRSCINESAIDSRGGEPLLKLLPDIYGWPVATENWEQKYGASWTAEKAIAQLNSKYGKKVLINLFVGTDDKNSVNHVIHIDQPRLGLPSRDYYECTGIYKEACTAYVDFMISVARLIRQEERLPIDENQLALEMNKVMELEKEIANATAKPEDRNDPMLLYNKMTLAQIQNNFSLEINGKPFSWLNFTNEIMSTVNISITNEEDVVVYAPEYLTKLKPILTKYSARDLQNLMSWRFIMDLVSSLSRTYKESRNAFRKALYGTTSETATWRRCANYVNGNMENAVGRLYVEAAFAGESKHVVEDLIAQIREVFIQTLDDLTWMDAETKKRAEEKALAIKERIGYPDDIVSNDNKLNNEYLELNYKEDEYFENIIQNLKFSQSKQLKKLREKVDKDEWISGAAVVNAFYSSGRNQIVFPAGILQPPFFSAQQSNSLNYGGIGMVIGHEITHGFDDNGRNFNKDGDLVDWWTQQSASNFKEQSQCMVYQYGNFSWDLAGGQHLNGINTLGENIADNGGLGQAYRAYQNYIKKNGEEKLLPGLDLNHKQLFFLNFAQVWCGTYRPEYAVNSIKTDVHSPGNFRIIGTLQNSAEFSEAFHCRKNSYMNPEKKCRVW

SMILES: OCCN1C[C@H](O)[C@@H](O)[C@H](O)[C@H]1CO [MIG, Miglitol]
- crosses the BBB ([1]; ref not given): cannot cross BBB

SMILES: COc1ccc2c3c1O[C@H]1C[C@@H](O)C=C[C@@]31CCN(C)C2 [GNT, galantamine]
- crosses the blood-brain barrier (BBB) [1]: cross the blood-brain barrier

SMILES: NC(=O)C1=CN([C@@H]2O[C@H](COP(=O)(O)OP(=O)(O)OC[C@H]3O[C@@H](n4cnc5c(N)ncnc54)[C@H](O)[C@@H]3O)[C@@H](O)[C@H]2O)C=CC1 [NAI, NADH]
- crosses the BBB [1]: cross the BBB

SMILES: CN(C)c1nc(N)c(C(=O)N=C(N)N)nc1Cl.Cl [5-(N,N-Dimethyl) amiloride hydrochloride]
- inhibition rate (NEP; binding to NEP): 80.96%
- quenching efficiency (NEP; binding to NEP): 54.77%
- IC50 (NEP; binding to NEP, computed value): 829 µM
- inhibition rate (IDE): 93.57%
- quenching efficiency (IDE): 54.77%
- IC50 (IDE): 178 µM

SMILES: O=C(O)CNC(=O)C(CS)Cc1ccccc1 (racemic) [DL-Thiophan]
- inhibition rate (NEP; binding to NEP): 102.01%

SMILES: C/C=C1\[C@H]2C=C(C)C[C@]1(N)c1ccc(=O)[nH]c1C2 [HUP, Huperzine A]
- crosses the blood-brain barrier (BBB) ([1]; in vivo): cross the blood-brain barrier

SMILES: Cl.N=C(N)NC(=O)c1nc(Cl)c(N)nc1N.O.O [Amiloride HCl dihydrate]
- inhibition rate (NEP; binding to NEP): 65.21%
- quenching efficiency (NEP; binding to NEP): -6.64%
- inhibition rate (IDE): 95.02%
- quenching efficiency (IDE): -6.64%
- IC50 (IDE): 214 µM

SMILES: Cc1c(C)c2c(c(C)c1O)CC[C@@](C)(CCC[C@H](C)CCC[C@H](C)CCCC(C)C)O2 [VIV, Vitamin E]
- crosses the BBB [1]: cross the BBB

SMILES: Nc1c2c(nc3ccccc13)CCCC2 [THA, tacrine]
- crosses the blood-brain barrier (BBB) ([1]; in vivo): cross the blood-brain barrier

SMILES: N=C(N)NC(=O)c1nc(Cl)c(N)nc1N [AMR, Amiloride]
- inhibition of NEP (in words) (NEP; [2]): weakly inhibits NEP
- inhibition of IDE (in words) (IDE; [2]): strongly inhibits IDE
